Drawing on patent US9408915B2, “Tolvaptan solid dispersion and its preparation method” (Jiangsu Hengrui Medicine Co., Ltd., priority 2010, dated 2016), this text covers dissolution rate and solubility in water for 2 molecules.

Data set [1] is described as follows: Dissolution test (paddle blade method, 0.2% w/v sodium dodecylsulfate aqueous solution). It is filed as physicochemical. The note with it: powder equal to 100 mg tolvaptan, paddle 100 rpm. As to the method: Q.S. (the amount is equal to 100 mg of tolvaptan) of the powder prepared in Examples 1-10, Comparative examples and the control (crystal material with a particle diameter distribution of 1400 μm and an average diameter of 83 μm) were added to the dissolution tester. 0.2% w/v sodium dodecylsulfate aqueous solution was used as the solvent. The dissolution test was performed using the paddle blade method with the rotation speed of 100 rpm. A sample was taken at 5 min, 10 min, 15 min, 20 min, 30 min, and 45 min to determine the absorbance and calculate the dissolution rate.
The determination of the dissolution rate (%) is as follows: dissolve a certain amount of tolvaptan in methanol; transfer 5 ml of the solution to a 100-ml volumetric flask and then dilute with 0.2% (w/v) sodium dodecylsulfate aqueous solution to give a 20 μg/ml standard solution; the absorbance of the standard solution and the sample solution was determined at wavelengths of 269 nm and 330 nm. The dissolution rate can be obtained by the ratio of the difference of the absorbance of standard solution and the control and the difference of the absorbance of the sample solution and control.

For data set [2] the following is noted: white crystal or crystalline powder; cited from earlier work.

Consider `Cc1ccccc1C(=O)Nc1ccc(C(=O)N2CCC[C@@H](O)c3cc(Cl)ccc32)c(C)c1` [compound 1], for which the dissolution rate was 15.9% in data set [1] (5 min); 19.1% in data set [1] (10 min); 22.2% in data set [1] (15 min); 25.8% in data set [1] (20 min); 30.7% in data set [1] (30 min); 42.8% in data set [1] (45 min).

Consider `Cc1ccccc1C(=O)Nc1ccc(C(=O)N2CCC[C@@H](O)c3cc(Cl)ccc32)c(C)c1` [Tolvaptan, 7-chloro-5-hydroxy-1-[2-methyl-4-(2-methylbenzoylamino)benzoyl]-2,3,4,5,-tetrohydro-1H-benzoazepine], for which the solubility in water entry in data set [2] is listed as “only slightly soluble in water”.
